# According to patent US11299472B2, “Fumarate salt of (R)-3-(1-(2,3-dichloro-4-(pyrazin-2-yl)phenyl)-2,2,2- trifluoroethyl)-1-methyl-1-(1-methylpiperidin-4-yl) urea, methods of preparation, and uses thereof” (Helsinn Healthcare SA, priority 2017, dated 2022):
# Columns and labels:
# [1] = Rat pharmacokinetic study, HM04 free base vs HM04 fumarate salt (Example 9); format: in vivo, male Sprague Dawley rats
# [2] = as above; format: in vivo, male Sprague Dawley rats; conditions: 3 mg/kg oral, mean ± S.D., n=3
# Description: The pharmacokinetics of HM04 in plasma of male Sprague Dawley rats dosed with a single oral administration of 3 mg/kg HM04 (based on the weight of the free base) formulated in a solution of 10% DMAC, 6% Solutol, and 84% PBS using either the HM04 free base or HM04 fumarate salt were compared. Blood samples were withdrawn at set time intervals and plasma concentration of HM04 was measured by LC-MS/MS. A comparison of the plasma concentration of HM04 (ng/mL) over time in rats dosed orally with HM04 free base and HM04 fumarate salt is provided in FIG. 17.
# [3] = Dog pharmacokinetic study, HM04 free base vs HM04 fumarate salt (Example 9); format: in vivo, male Beagle dogs; conditions: for HM04 plasma concentration: 2 mg/kg oral, mean ± S.D., n=3
# human GHSR1a receptor [4] = molecular target: T1, human GHSR1a receptor (Homo sapiens, UniProt Q92847); assay: Inositol 1 phosphate (IP-1) inverse agonist assay; format: cell-based; conditions: IP-1 assay
# T1 construct: expressed in transfected cells; host or cells: HEK293
# T1 sequence (Q92847 whole entry): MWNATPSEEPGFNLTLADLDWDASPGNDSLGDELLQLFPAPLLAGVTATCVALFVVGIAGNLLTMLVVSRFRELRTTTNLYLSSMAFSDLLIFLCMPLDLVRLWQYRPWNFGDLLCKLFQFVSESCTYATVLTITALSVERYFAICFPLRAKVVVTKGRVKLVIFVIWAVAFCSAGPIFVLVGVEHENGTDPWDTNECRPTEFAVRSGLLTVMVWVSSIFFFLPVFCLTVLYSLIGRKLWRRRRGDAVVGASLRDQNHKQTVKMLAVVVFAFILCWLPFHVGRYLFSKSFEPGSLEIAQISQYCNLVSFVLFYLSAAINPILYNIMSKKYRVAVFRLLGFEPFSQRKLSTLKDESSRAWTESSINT
# Description: (§1) The compounds were diluted with 100% DMSO to make 30 mM stock. On the test day, serial dilutions were prepared starting from the stock solution. For the FLIPR assay: 1) 8 μl of DMSO was added to 2 μl of compound stock solution (30 mM) to produce 10 μl of 6 mM solution; half-fold serial dilutions of the 6 mM solution were produced to generate ten doses; 2) test solutions were obtained by diluting the stock solutions 1/40 in assay buffer (DMSO concentration 2.5%). For the IP-1 assay: 1) 29 μl of DMSO was added to 1 μl of compound stock solution (30 mM) to produce 30 μl of 1 mM solution; half-fold serial dilutions of the 1 mM solution were produced to generate 10 doses; 2) test solutions were obtained by diluting the stock solutions 1/100 in assay buffer (DMSO final concentration 1%).
# For the inverse agonist activity study, the same procedure described above was followed up to the day of the test. On the test day, the medium was removed by centrifuging at 700 rpm for 30 seconds and 20 μl/well of assay buffer containing the HM04 or R011 was added. The assay plates were incubated at 37° C. in the dark for 1 hour. IP1-d2 (5 μl) and AB-Cryp (5 μl) were sequentially added to all wells using multidrop Combi. The plate was incubated at room temperature for 1 hour and read on EnVision at 620 nm and 665 nm.
# human GHSR1a receptor [5] = molecular target: T1, human GHSR1a receptor; assay: Agonist FLIPR assay in HEK293 cells; format: cell-based; conditions: FLIPR agonist mode, concentrations up to 10 μM
# Description: as §1
# (§2) For the agonist and antagonist activity study, HEK293 cells stably expressing human GHSR1a receptor were used in a (FLIPR) assay. […] Fluorescence signal was detected with FLIPR at room temperature according to standard settings for 10 minutes before cells were exposed to 10 μl of 5× working concentrations of agonists (compound added by FLIPR). The fluorescence signal was detected in the subsequent 3 minutes (antagonist mode).
# human GHSR1a receptor [6] = molecular target: T1, human GHSR1a receptor; assay: Antagonist FLIPR assay in HEK293 cells; format: cell-based; conditions: HEK293 cells expressing human GHSR1a, in duplicate, HM04 tested as fumarate salt
# Description: The compounds were diluted with 100% DMSO to make 30 mM stock. On the test day, serial dilutions were prepared starting from the stock solution. For the FLIPR assay: 1) 8 μl of DMSO was added to 2 μl of compound stock solution (30 mM) to produce 10 μl of 6 mM solution; half-fold serial dilutions of the 6 mM solution were produced to generate ten doses; 2) test solutions were obtained by diluting the stock solutions 1/40 in assay buffer (DMSO concentration 2.5%). […]
# as §2
# Data were reported as relative light units (RLUs) and analyzed using GraphPad Software Inc. version 6. The half maximal inhibitory concentration (IC50) measured for HM04 and R011 were calculated by non-linear regression analysis.
# [7] = tested on: ghrelin-induced increase of GH; assay: Ghrelin-induced increase of growth hormone in rats; format: in vivo; conditions: 30 mg/kg HM04 fumarate salt p.o. 2 hours before 15 μg/kg ghrelin i.v., 15 minutes after ghrelin
# Description: Rats were divided into four groups: 1) 1 ml/kg saline plus 10 ml/kg 0.5% CMC p.o. (n=6); 2) 15 μg/kg ghrelin i.v. plus 10 ml/kg 0.5% CMC p.o. (n=6); 3) 30 mg/kg HM04 fumarate salt p.o. 2 hours before 15 μg/kg ghrelin i.v. (n=6); 4) 10 mg/kg ghrelin antagonist R011 i.p. 30 minutes before 15 μg/kg ghrelin i.v. (n=6). Blood was collected as 100 μl samples at time 0 and at 15 minutes after ghrelin injection. Rats were anesthetized with 64.8 mg/kg sodium pentobarbital. A catheter filled with heparinized saline solution was inserted in the left femoral artery for blood collection and fitted with an extension tube, 1-mL sampling syringe, and a 3-way cock to allow excess blood to return.
# Plasma levels of growth hormone (GH) were determined using Rat GH ELISA (Millipore, Catalog No. EZRMGH-45K). Measurements were performed in duplicate. […] One-way and two-way ANOVA test was used to compare differences between groups. All values are presented as mean±SEM. One-way ANOVA was performed followed by Turkey's post hoc test where significance was indicated by p values<0.05 or p values<0.01.
"HM04 plasma concentration ([1]; 3 mg/kg oral, 0.25 hours, mean ± S.D., n=3) [ng/mL]","HM04 plasma concentration ([1]; 3 mg/kg oral, 4 hours, mean ± S.D., n=3) [ng/mL]","AUC ([1]; male, Sprague Dawley, plasma, 3 mg/kg intravenous, three rats, read-out: mean AUC following intravenous administration) [ng·h/mL]","bioavailability ([1]; male, Sprague Dawley, plasma, 3 mg/kg oral vs 3 mg/kg intravenous mean AUC) [%]","Cmax ([1]; male, Sprague Dawley, plasma, 3 mg/kg oral, mean ± S.D., n=3) [ng/mL]",HM04 plasma concentration ([2]; 0.50 hours) [ng/mL],HM04 plasma concentration ([2]; 1 hour) [ng/mL],HM04 plasma concentration ([2]; 2 hours) [ng/mL],HM04 plasma concentration ([2]; 8 hours) [ng/mL],"AUC(0-t) ([2]; male, Sprague Dawley, plasma) [ng·h/mL]","Tmax ([2]; male, Sprague Dawley, plasma) [min]",HM04 plasma concentration ([3]; 1 hour) [ng/mL],HM04 plasma concentration ([3]; 4 hours) [ng/mL],HM04 plasma concentration ([3]; 8 hours) [ng/mL],HM04 plasma concentration ([3]; 24 hours) [ng/mL],"AUC ([3]; male, Beagle, plasma, 1 mg/kg intravenous, three dogs, read-out: mean AUC following intravenous administration) [ng·h/mL]",agonist activity (human GHSR1a receptor [5]),IC50 (human GHSR1a receptor [6]) [nM],SMILES,inverse agonist activity (human GHSR1a receptor [4]),inhibition of ghrelin-induced increase of GH [7] [%]
107.8 ± 27.8,108.3 ± 38.3,2100 ± 358,46.1 ± 6.99,329 ± 185,325.9 ± 187.8,201.0 ± 38.7,173.9 ± 12.2,42.3 ± 2.5,970 ± 147,49.8 ± 17.4,227.4 ± 52.2,152.9 ± 56.9,70.2 ± 41.0,13.1 ± 13.2,1130 ± 364,–,–,"CN1CCC(N(C)C(=O)N[C@H](c2ccc(-c3cnccn3)c(Cl)c2Cl)C(F)(F)F)CC1.O=C(O)/C=C/C(=O)O [HM04 fumarate salt, (R)-3-(1-(2,3-dichloro-4-(pyrazin-2-yl)phenyl)-2,2,2-trifluoroethyl)-1-methyl-1-(1-methylpiperidin-4-yl)urea fumarate salt]",–,–
–,–,–,–,–,–,–,–,–,–,–,–,–,–,–,–,No agonist activity was observed,7.31,"CN1CCC(N(C)C(=O)N[C@H](c2ccc(-c3cnccn3)c(Cl)c2Cl)C(F)(F)F)CC1 [HM04, (R)-3-(1-(2,3-dichloro-4-(pyrazin-2-yl)phenyl)-2,2,2-trifluoroethyl)-1-methyl-1-(1-methylpiperidin-4-yl)urea]",did not show a clear significant inverse agonist activity,35
